From article PMC11277489, “Novel Piperazine Derivatives of Vindoline as Anticancer Agents” (International Journal of Molecular Sciences, 2024)

How the values were obtained:
NCI-H322M = experiment: NCI60 one-dose screen (10 μM), Non-small Cell Lung Cancer; assay type: cell-based; details: Homo sapiens, 10 μM, Non-small Cell Lung Cancer, read-out: Growth percent rate
MDA-MB-435 = experiment: NCI60 one-dose screen (10 μM), Melanoma; assay type: cell-based; details: Homo sapiens; 10 μM; MDA-MB-435, Melanoma; read-out: Growth percent rate
DU-145 = experiment: NCI60 one-dose screen (10 μM), Prostate Cancer; assay type: cell-based; details: Homo sapiens; 10 μM; DU-145, Prostate Cancer; read-out: Growth percent rate
CCRF-CEM = experiment: NCI60 one-dose screen (10 μM), Leukemia; assay type: cell-based; details: Homo sapiens, 10 μM, Leukemia, read-out: Growth percent rate
RXF 393 = experiment: NCI60 one-dose screen (10 μM), Renal Cancer; assay type: cell-based, human; details: Homo sapiens; 10 μM; RXF 393, Renal Cancer; read-out: Growth percent rate
NCI-H23 = experiment: NCI60 one-dose screen (10 μM), Non-small Cell Lung Cancer; assay type: cell-based; details: Homo sapiens; 10 μM; NCI-H23, Non-small Cell Lung Cancer; read-out: Growth percent rate
SK-MEL-2 = experiment: NCI60 one-dose screen (10 μM), Melanoma; assay type: cell-based; details: Homo sapiens; 10 μM; SK-MEL-2, Melanoma; read-out: Growth percent rate
MCF7 = experiment: NCI60 one-dose screen (10 μM), Breast Cancer; assay type: cell-based; details: Homo sapiens; 10 μM; MCF7, Breast Cancer; read-out: Growth percent rate
IGROV1 = experiment: NCI60 one-dose screen (10 μM), Ovarian Cancer; assay type: cell-based; details: Homo sapiens, IGROV-1; 10 μM; IGROV1, Ovarian Cancer; read-out: Growth percent rate
OVCAR-8 = experiment: NCI60 one-dose screen (10 μM), Ovarian Cancer; assay type: cell-based; details: Homo sapiens; 10 μM; OVCAR-8, Ovarian Cancer; read-out: Growth percent rate
SF-295 = experiment: NCI60 one-dose screen (10 μM), CNS Cancer; assay type: cell-based; details: Homo sapiens; 10 μM; SF-295, CNS Cancer; read-out: Growth percent rate
ACHN = experiment: NCI60 one-dose screen (10 μM), Renal Cancer; assay type: cell-based; details: Homo sapiens, 10 μM, Renal Cancer, read-out: Growth percent rate
CAKI-1 = experiment: NCI60 one-dose screen (10 μM), Renal Cancer; assay type: cell-based; details: Homo sapiens; 10 μM; CAKI-1, Renal Cancer; read-out: Growth percent rate
SK-MEL-5 = experiment: NCI60 one-dose screen (10 μM), Melanoma; assay type: cell-based, human; details: Homo sapiens; 10 μM; SK-MEL-5, Melanoma; read-out: Growth percent rate
HCC-2998 = experiment: NCI60 one-dose screen (10 μM), Colon Cancer; assay type: cell-based; details: Homo sapiens; 10 μM; HCC-2998, Colon Cancer; read-out: Growth percent rate
HCT-15 = experiment: NCI60 one-dose screen (10 μM), Colon Cancer; assay type: cell-based; details: Homo sapiens; 10 μM; HCT-15, Colon Cancer; read-out: Growth percent rate
SF-268 = experiment: NCI60 one-dose screen (10 μM), CNS Cancer; assay type: cell-based; details: Homo sapiens; 10 μM; SF-268, CNS Cancer; read-out: Growth percent rate
A549/ATCC = experiment: NCI60 one-dose screen (10 μM), Non-small Cell Lung Cancer; assay type: cell-based; details: Homo sapiens; 10 μM; A549/ATCC, Non-small Cell Lung Cancer; read-out: Growth percent rate
NCI-H460 = experiment: as above; assay type: cell-based; details: Homo sapiens; 10 μM; NCI-H460, Non-small Cell Lung Cancer; read-out: Growth percent rate
OVCAR-4 = experiment: NCI60 one-dose screen (10 μM), Ovarian Cancer; assay type: cell-based; details: Homo sapiens; 10 μM; OVCAR-4, Ovarian Cancer; read-out: Growth percent rate
SF-539 = experiment: NCI60 one-dose screen (10 μM), CNS Cancer; assay type: cell-based, human; details: Homo sapiens; 10 μM; SF-539, CNS Cancer; read-out: Growth percent rate
MOLT-4 = experiment: NCI60 one-dose screen (10 μM), Leukemia; assay type: cell-based, human; details: Homo sapiens; 10 μM; MOLT-4, Leukemia; read-out: Growth percent rate
[1] = test system: 60 human tumor cell lines (NCI60); experiment: NCI60 one-dose screen (10 μM), whole panel; assay type: cell-based
786–0 = experiment: NCI60 one-dose screen (10 μM), Renal Cancer; assay type: cell-based; details: Homo sapiens; 10 μM; 786-0, Renal Cancer; read-out: Growth percent rate
HL-60(TB) = experiment: NCI60 one-dose screen (10 μM), Leukemia; assay type: cell-based; details: Homo sapiens; 10 μM; HL-60(TB), Leukemia; read-out: Growth percent rate
NCI-H522 = experiment: NCI60 one-dose screen (10 μM), Non-small Cell Lung Cancer; assay type: cell-based; details: Homo sapiens; 10 μM; NCI-H522, Non-small Cell Lung Cancer; read-out: Growth percent rate
M14 = experiment: NCI60 one-dose screen (10 μM), Melanoma; assay type: cell-based; details: Homo sapiens; 10 μM; M14, Melanoma; read-out: Growth percent rate
MALME-3M = experiment: NCI60 one-dose screen (10 μM), Melanoma; assay type: cell-based; details: Homo sapiens; 10 μM; MALME-3M, Melanoma; read-out: Growth percent rate
SW-620 = experiment: NCI60 one-dose screen (10 μM), Colon Cancer; assay type: cell-based; details: Homo sapiens; 10 μM; SW-620, Colon Cancer; read-out: Growth percent rate
KM12 = experiment: NCI60 one-dose screen (10 μM), Colon Cancer; assay type: cell-based, human; details: Homo sapiens; 10 μM; KM12, Colon Cancer; read-out: Growth percent rate
SK-MEL-28 = experiment: NCI60 one-dose screen (10 μM), Melanoma; assay type: cell-based; details: Homo sapiens; 10 μM; SK-MEL-28, Melanoma; read-out: Growth percent rate
SNB-19 = experiment: NCI60 one-dose screen (10 μM), CNS Cancer; assay type: cell-based; details: Homo sapiens; 10 μM; SNB-19, CNS Cancer; read-out: Growth percent rate
SNB-75 = experiment: NCI60 one-dose screen (10 μM), CNS Cancer; assay type: cell-based, human; details: Homo sapiens; 10 μM; SNB-75, CNS Cancer; read-out: Growth percent rate
OVCAR-3 = experiment: NCI60 one-dose screen (10 μM), Ovarian Cancer; assay type: cell-based; details: Homo sapiens; 10 μM; OVCAR-3, Ovarian Cancer; read-out: Growth percent rate
COLO 205 = experiment: NCI60 one-dose screen (10 μM), Colon Cancer; assay type: cell-based, human; details: Homo sapiens; 10 μM; COLO 205, Colon Cancer; read-out: Growth percent rate
SN12C = experiment: NCI60 one-dose screen (10 μM), Renal Cancer; assay type: cell-based; details: Homo sapiens, 10 μM, Renal Cancer, read-out: Growth percent rate
UACC-257 = experiment: NCI60 one-dose screen (10 μM), Melanoma; assay type: cell-based; details: Homo sapiens; 10 μM; UACC-257, Melanoma; read-out: Growth percent rate
K-562 = experiment: NCI60 one-dose screen (10 μM), Leukemia; assay type: cell-based; details: Homo sapiens, K562; 10 μM; K-562, Leukemia; read-out: Growth percent rate
HT29 = experiment: NCI60 one-dose screen (10 μM), Colon Cancer; assay type: cell-based; details: Homo sapiens, HT-29; 10 μM; HT29, Colon Cancer; read-out: Growth percent rate
LOX IMVI = experiment: NCI60 one-dose screen (10 μM), Melanoma; assay type: cell-based, human; details: Homo sapiens; 10 μM; LOX IMVI, Melanoma; read-out: Growth percent rate
HCT-116 = experiment: NCI60 one-dose screen (10 μM), Colon Cancer; assay type: cell-based; details: Homo sapiens; 10 μM; HCT-116, Colon Cancer; read-out: Growth percent rate
EKVX = experiment: NCI60 one-dose screen (10 μM), Non-small Cell Lung Cancer; assay type: cell-based; details: Homo sapiens, 10 μM, Non-small Cell Lung Cancer, read-out: Growth percent rate

CCC12C=CCN3CCC4(c5ccc(OC)cc5N(C)C4C(O)(C(=O)OC)C1OC(=O)CCCBr)C32 (stereo not shown) [Compound 14, 17-(O-4-bromobutanoyl)vindoline]
activity at 10 µM (NCI-H322M): 101%
activity at 10 µM (MDA-MB-435): 104%
activity at 10 µM (DU-145): 99.6%
activity at 10 µM (CCRF-CEM): 99.8%
activity at 10 µM (RXF 393): 99.5%
activity at 10 µM (NCI-H23): 93.1%
activity at 10 µM (SK-MEL-2): 103%
activity at 10 µM (MCF7): 80.3%
activity at 10 µM (IGROV1): 100%
activity at 10 µM (OVCAR-8): 93.4%
activity at 10 µM (SF-295): 86.9%
activity at 10 µM (ACHN): 99.8%
activity at 10 µM (CAKI-1): 80.9%
activity at 10 µM (SK-MEL-5): 84.3%
activity at 10 µM (HCC-2998): 93.8%
activity at 10 µM (HCT-15): 96.8%
activity at 10 µM (SF-268): 83.2%
activity at 10 µM (A549/ATCC): 89.4%
activity at 10 µM (NCI-H460): 97.8%
activity at 10 µM (OVCAR-4): 83.9%
activity at 10 µM (SF-539): 91.9%
activity at 10 µM (MOLT-4): 76.1%
antiproliferative effect (in words) ([1]; 10 μM one-dose, NCI60): a notable antiproliferative effect was not shown
activity at 10 µM ([1]; 10 μM, mean over 60 human cancer cell lines, read-out: Growth percent rate, Mean): 92.5%
activity at 10 µM (786–0): 94.3%
activity at 10 µM (HL-60(TB)): 90.5%
activity at 10 µM (NCI-H522): 79%
activity at 10 µM (M14): 95.7%
activity at 10 µM (MALME-3M): 101%
activity at 10 µM (SW-620): 100%
activity at 10 µM (KM12): 100%
activity at 10 µM (SK-MEL-28): 105%
activity at 10 µM (SNB-19): 89.3%
activity at 10 µM (SNB-75): 92.6%
activity at 10 µM (OVCAR-3): 99.7%
activity at 10 µM (COLO 205): 101%
activity at 10 µM (SN12C): 97.4%
activity at 10 µM (UACC-257): 88.4%
activity at 10 µM (K-562): 79.7%
activity at 10 µM (HT29): 94.1%
activity at 10 µM (LOX IMVI): 88.6%
activity at 10 µM (HCT-116): 87%
activity at 10 µM (EKVX): 91.2%
